Starred links: 1 amine or outer side, 2 acyl side, 3 side chain; linkers in the order of their positions; H or OH if unused. Non-standard residues stand in square brackets, D forms with d. Residues, ends and D or L forms follow the SMILES beside them. *: point of attachment. X11 = NC(=O)C[C@@H](CN([C@@H](Cc1c[nH]c2ccccc12)C(=O)[*:2])[*:1])N[*:3]; X1 = NC(=O)C[C@@H](C(=O)[*:2])N(C[C@@H](N)Cc1ccc(O)cc1)[*:1]; Butyryl(4-indol-3-yl) = O=C(CCCc1c[nH]c2ccccc12)*; X8 = O=C([C@H](Cc1ccc2ccccc2n1)N[*:1])[*:2]; Cyclohexanecarbonyl = O=C(C1CCCCC1)*; Arg(Me) = CNC(=N)NCCC[C@H](N)C(=O)O; 2Pal = N[C@@H](Cc1ccccn1)C(=O)O; 4Pal = N[C@@H](Cc1ccncc1)C(=O)O; d3Pal = N[C@H](Cc1cccnc1)C(=O)O; Cha = N[C@@H](CC1CCCCC1)C(=O)O; Tos = Cc1ccc(S(=O)(=O)*)cc1; Cbz = O=C(OCc1ccccc1)*; azaGly = NNC(=O)O
Molecular target: T1, hOT7T175 (Homo sapiens, UniProt Q969F8)
T1 construct: expressed in transfected cells
T1 sequence (Q969F8 whole entry L364H): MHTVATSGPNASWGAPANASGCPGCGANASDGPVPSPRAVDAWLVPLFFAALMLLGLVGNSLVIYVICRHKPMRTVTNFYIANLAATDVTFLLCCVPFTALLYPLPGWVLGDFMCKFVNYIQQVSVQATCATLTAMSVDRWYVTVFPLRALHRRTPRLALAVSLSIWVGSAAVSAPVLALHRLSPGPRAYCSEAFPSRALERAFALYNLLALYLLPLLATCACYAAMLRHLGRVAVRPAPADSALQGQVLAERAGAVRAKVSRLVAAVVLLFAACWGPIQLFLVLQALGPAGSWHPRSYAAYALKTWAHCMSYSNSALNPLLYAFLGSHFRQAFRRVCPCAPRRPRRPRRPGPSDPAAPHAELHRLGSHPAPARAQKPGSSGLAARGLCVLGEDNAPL
Assay: Intracellular Ca ion level-increasing activity using FLIPR (180 seconds; specific activity to Metastin (1-54))
Type: cell-based
Details: hOT7T175/CHO, change in intracellular calcium ion level for 180 seconds, Tables 21-23
Procedure: In accordance with the method described in JPA 2000-312590, the intracellular Ca ion level-increasing activity was measured using FLIPR. […]
The intracellular Ca ion level-increasing activity of the synthetic peptide in hOT7T175/CHO was determined using FLIPR (Molecular Devices, Inc.).
hOT7T175/CHO was subcultured in DMEM supplemented with 10% dialyzed fetal bovine serum (hereinafter abbreviated as dFBS) and provided for the experiment (hereinafter abbreviated as 10% dFBS/DMEM). The hOT7T175/CHO was suspended in 10% dFBS-DMEM in 15×10^4 cells/ml. The suspension was inoculated on a 96-well plate for FLIPR (Black Plate Clear Bottom, Coster, Inc.) at 200 μl each (3.0×10^4 cells/200 μl), followed by incubation at 37° C. overnight in a 5% CO2 incubator. The cells thus incubated were used (hereinafter simply referred to as the cell plate). Then, 21 ml of HANKS/HBSS (9.8 g of HANKS', 0.35 g of sodium hydrogencarbonate, 20 ml of 1M HEPES; after adjusting the pH to 7.4 with 1N sodium hydroxide, the mixture was subjected to sterilization through a filter), 210 μl of […] Probenecid and 210 μl of fetal bovine serum (FBS) were mixed (HANKS/HBSS-Probenecid-FBS).
Furthermore, 2 vials of Fluo3-AM (50 μg/vial) were dissolved in 21 μL of dimethylsulfoxide and 21 μL of 20% Pluronic acid. The resulting solution was added to and mixed with 10 ml of HANKS/HBSS-Probenecid-FBS described above. After the culture medium was removed, the mixture was dispensed onto the cell plate in 100 μl each/well, followed by incubation at 37° C. for an hour in a 5% CO2 incubator (pigment loading). The peptide was dissolved in dimethylsulfoxide in 1×10^−3 M. The peptide solution was diluted with HANKS'/HBSS containing 2.5 mM Probenecid and 0.2% BSA. The dilution was transferred to a 96-well plate for FLIPR (V-Bottom plate, Coster, Inc.) (hereinafter referred to as a sample plate). After completion of the pigment loading onto the cell plate, the cell plate washed 4 times with wash buffer, which was obtained by adding 2.5 mM Probenecid to HANKS'/HBSS, using a plate washer to leave 100 μL of wash buffer after the washing. The cell plate and the sample plate were set in FLIPR and 0.05 ml of a sample from the sample plate was automatically transferred to the cell plate with the FLIPR device to promote the cell response. A change in intracellular calcium ion level for 180 seconds was measured with passage of time.

Compound	intracellular Ca ion level-increasing activity [specific activity to Metastin (1-54)]
n-Hexanoyl-Phe-AzaGly-Leu-Arg(Me)-Phe-NH2 [Compound No. 347]	½
2-Azetidinecarbonyl-Phe-AzaGly-Leu-Arg(Me)-Trp-NH2 [Compound No. 466]	⅓
Benzoyl-PheΨ(CH2O)Gly-Leu-Arg(Me)-Trp-NH2 [Compound No. 421]	⅓
Dibenzylaminocarbamoylacetyl-Leu-Arg(Me)-Trp-NH2 [Compound No. 434]	1/10
CNC(=N)NCCC[C@H](NC(=O)[C@H](CC(C)C)NC(=O)NNC(=O)[C@H](Cc1ccccc1)NC(=O)[C@H](CO)NC(=O)[C@H](CC(N)=O)NC(=O)[C@H](Cc1ccncc1)NC(=O)[C@H](CC(N)=O)NC(=O)[C@H](N)Cc1ccc(O)cc1)C(=O)N[C@@H](Cc1ccccc1)C(N)=O [Compound No. 286, D-Tyr-Asn-Pya(4)-Asn-Ser-Phe-AzaGly-Leu-Arg(Me)-Phe-NH2] (H-[dY]N[4Pal]NSF[azaGly]L[Arg(Me)]F-NH2)	2
CC(C)C[C@H](NC(=O)CNC(=O)[C@H](Cc1ccccc1)NC(=O)[C@H](CO)NC(=O)[C@H](CC(N)=O)NC(=O)[C@H](Cc1c[nH]c2ccccc12)NC[C@H](CC(N)=O)NC(=O)[C@@H](N)Cc1ccc(O)cc1)C(=O)N[C@@H](CCCNC(=N)N)C(=O)N[C@@H](Cc1ccccc1)C(N)=O [Compound No. 295] (H-[X11](Tyr)NSFGLRF-NH2)	1
(2R)-2-Benzoyloxy-3-phenylpropionyl-AzaGly-Leu-Arg(Me)-Trp-NH2 [Compound No. 412]	⅕
CNC(=N)NCCC[C@H](NC(=O)[C@H](CC(C)C)NC(=O)NNC(=O)[C@H](Cc1ccccc1)NC(=O)[C@H](CO)NC(=O)[C@H](CC(N)=O)NC(=O)CCCc1c[nH]c2ccccc12)C(=O)N[C@@H](Cc1ccccc1)C(N)=O [Compound No. 267, 4-(3-Indolyl)butyryl-Asn-Ser-Phe-AzaGly-Leu-Arg(Me)-Phe-NH2] ({Butyryl(4-indol-3-yl)}-NSF[azaGly]L[Arg(Me)]F-NH2)	2
CNC(=N)NCCC[C@H](NC(=O)[C@H](CC(C)C)NC(=O)NNC(=O)[C@H](Cc1ccccc1)NC(=O)[C@H](CO)NC(=O)[C@H](CC(N)=O)NC(=O)[C@H](Cc1c[nH]c2ccccc12)NC(=O)[C@H](CC(N)=O)NC[C@@H](N)Cc1ccc(O)cc1)C(=O)N[C@@H](Cc1ccccc1)C(N)=O [Compound No. 299, TyrΨ(CH2NH)Asn-Trp-Asn-Ser-Phe-AzaGly-Leu-Arg(Me)-Phe-NH2] (H-[X1]WNSF[azaGly]L[Arg(Me)]F-NH2)	5
Indole-3-carbonyl-Phe-AzaGly-Leu-Arg(Me)-Phe-NH2 [Compound No. 344]	½
4-Pyridinecarbonyl-Phe-AzaGly-Leu-Orn-Trp-NH2 [Compound No. 477]	⅕
CNC(=N)NCCC[C@H](NC(=O)[C@H](CC(C)C)NC(=O)NNC(=O)[C@H](Cc1ccccc1)NC(=O)[C@H](CO)NC(=O)[C@H](CC(N)=O)NC(=O)[C@H](Cc1ccncc1)NC(=O)[C@@H](CC(N)=O)NC(=O)[C@@H](N)Cc1ccc(O)cc1)C(=O)N[C@@H](Cc1ccccc1)C(N)=O [Compound No. 304, Tyr-D-Asn-Pya(4)-Asn-Ser-Phe-AzaGly-Leu-Arg(Me)-Phe-NH2] (H-Y[dN][4Pal]NSF[azaGly]L[Arg(Me)]F-NH2)	3
Ac-F[azaGly]L[Arg(Me)]F-NH2 [Compound No. 346]	2
Tos-F[azaGly]L[Arg(Me)]F-NH2 [Compound No. 349]	⅕
1-Oxo-isochroman-3-carbonyl-AzaGly-Leu-Arg(Me)-Trp-NH2 [Compound No. 408]	⅓
(2S)-2-Benzoyloxy-3-phenylpropionyl-AzaGly-Leu-Arg(Me)-Trp-NH2 [Compound No. 380]	5
(S)-1-(Quinolin-8-yl-carbamoyl)-4-thiapentylcarbamoyl-D-Tyr-Asn-Trp-Asn-Ser-Phe-Gly-Leu-Arg(Me)-Phe-NH2 [Compound No. 400]	1
CNC(=N)NCCC[C@H](NC(=O)[C@H](CC(C)C)NC(=O)NNC(=O)[C@H](Cc1ccccc1)NC(=O)[C@H](CO)NC(=O)[C@H](CC(N)=O)NC(=O)[C@@H](NC(=O)[C@@H](CC(N)=O)NC(=O)[C@H](N)Cc1ccc(O)cc1)[C@@H](C)O)C(=O)N[C@@H](Cc1ccccc1)C(N)=O [Compound No. 284, D-Tyr-D-Asn-Thr-Asn-Ser-Phe-AzaGly-Leu-Arg(Me)-Phe-NH2] (H-[dY][dN]TNSF[azaGly]L[Arg(Me)]F-NH2)	1
Cbz-F[azaGly]L[Arg(Me)]F-NH2 [Compound No. 348]	⅕
CNC(=N)NCCC[C@H](NC(=O)[C@H](CC(C)C)NC(=O)NNC(=O)[C@H](Cc1ccccc1)NC(=O)[C@H](CO)NC(=O)[C@H](CC(N)=O)NC(=O)[C@H](CC1CCCCC1)NC(=O)[C@@H](Cc1ccc(O)cc1)NC(=O)[C@H](N)Cc1cccnc1)C(=O)N[C@@H](Cc1ccccc1)C(N)=O [Compound No. 291, D-Pya(3)-D-Tyr-Cha-Asn-Ser-Phe-AzaGly-Leu-Arg(Me)-Phe-NH2] (H-[d3Pal][dY][Cha]NSF[azaGly]L[Arg(Me)]F-NH2)	2
4-Pyridinecarbonyl-Phe-AzaGly-Leu-Har-Trp-NH2 [Compound No. 478]	⅓
CNC(=N)NCCC[C@H](NC(=O)[C@H](CC(C)C)NC(=O)CNC(=O)[C@H](Cc1ccccn1)NC(=O)[C@H](CO)NC(=O)[C@H](CC(N)=O)NC(=O)[C@H](Cc1c[nH]c2ccccc12)NC(=O)[C@H](CC(N)=O)NC(=O)[C@H](N)Cc1ccc(O)cc1)C(=O)N[C@@H](Cc1ccccc1)C(N)=O [Compound No. 281, D-Tyr-Asn-Trp-Asn-Ser-Pya(2)-Gly-Leu-Arg(Me)-Phe-NH2] (H-[dY]NWNS[2Pal]GL[Arg(Me)]F-NH2)	½
(R)-3-hydroxy-2-methylpropionyl-Phe-AzaGly-Leu-Arg(Me)-Trp-NH2 [Compound No. 452]	1
CNC(=N)NCCC[C@H](NC(=O)[C@H](CC(C)C)NC(=O)NNC(=O)[C@H](Cc1ccccc1)NC(=O)[C@H](CO)NC(=O)[C@H](CC(N)=O)NC(=O)[C@H](Cc1ccc2ccccc2n1)NC(=O)[C@H](CC(N)=O)NC(=O)[C@H](N)Cc1ccc(O)cc1)C(=O)N[C@@H](Cc1ccccc1)C(N)=O [Compound No. 301, D-Tyr-Asn-Ala(2-Qui)-Asn-Ser-Phe-AzaGly-Leu-Arg(Me)-Phe-NH2] (H-[dY]N[X8]NSF[azaGly]L[Arg(Me)]F-NH2)	1
CNC(=N)NCCC[C@H](NC(=O)[C@H](CC(C)C)NC(=O)NNC(=O)[C@H](Cc1ccccc1)NC(=O)[C@H](CO)NC(=O)[C@H](CC(N)=O)NC(=O)[C@H](Cc1c[nH]c2ccccc12)NC(=O)[C@H](N)Cc1cccnc1)C(=O)N[C@@H](Cc1ccccc1)C(N)=O [Compound No. 289, D-Pya(3)-Trp-Asn-Ser-Phe-AzaGly-Leu-Arg(Me)-Phe-NH2] (H-[d3Pal]WNSF[azaGly]L[Arg(Me)]F-NH2)	1
Phenylacetyl-Phe-AzaGly-Leu-Arg(Me)-Trp-NH2 [Compound No. 440]	1
3-Phenylpropionyl-AzaGly-Leu-Arg(Me)-Phe-NH2 [Compound No. 362]	1/10
CNC(=N)NCCC[C@H](NC(=O)[C@H](CC(C)C)NC(=O)NNC(=O)[C@H](Cc1ccccc1)NC(=O)[C@H](CO)NC(=O)[C@H](CC(N)=O)NC(=O)C1CCCCC1)C(=O)N[C@@H](Cc1ccccc1)C(N)=O [Compound No. 278, Cyclohexanecarbonyl-Asn-Ser-Phe-AzaGly-Leu-Arg(Me)-Phe-NH2] (Cyclohexanecarbonyl-NSF[azaGly]L[Arg(Me)]F-NH2)	2

Reference: US8778871B2 (Takeda Pharmaceutical Company Limited, priority 2004, dated 2014)
